Laboratory results from US10301352B2, “Peptidomimetics with antiangiogenic activity” (UNIWERSYTET WARSZAWSKI, priority 2013, dated 2019).
Non-standard residues stand in square brackets, D forms with d. Residues, ends and D or L forms follow the SMILES beside them. No end group written: not given here. ξ: configuration not given here. hArg = N=C(N)NCCCC[C@H](N)C(=O)O; Dab = NCC[C@H](N)C(=O)O; Dap = NC[C@H](N)C(=O)O; ξP = O=C(O)C1CCCN1

Key:
[1] = In vitro peptidomimetic stability in human plasma (LC/MS); assay type: in vitro ADME; conditions: 37° C.; for half-life at 0.35 μmol/mL: human plasma from healthy donors, TFA salt, read-out: half-life time; for main enzymatic cleavage / degradation products: human plasma
Protocol: The stability of two peptidomimetics: Lys(hArg)-Dap-Pro-Arg and Lys(hArg-Pro-Dab-Arg were tested in plasma samples obtained from healthy donors. Peptidomimetics stock solutions were prepared by dissolving the TFA salt of proper peptidomimetic in water to obtain a final peptidomimetic concentration of 0.7 μmol/mL. In a Eppendorf tube, samples of 100 μL of human plasma were temperature-equilibrated at 37° C. for 15 minutes before adding 100 μL of peptidomimetic stock solution. Three tubes allowed the analysis for each time point. The initial time was recorded and at known time intervals (every 10 minutes from 0 sec to 3 h), 400 μL of solution of TCA in 99.8% ethanol (CTCA=0.2%) was added to the reaction solution for precipitation of the serum proteins. The cloudy reaction sample was shaken and then spun at 2000 g to pellet the precipitated serum proteins. The reaction supernatant was then analyzed by LC/MS analysis (using a RP-HPLC-ESI-MS system).

NRP-1 = target: T1, NRP-1 (Rattus norvegicus, UniProt Q9QWJ9); test: VEGF165 displacement assay (inhibition of VEGF165 to NRP-1 binding); conditions: biotinylated VEGF165 1 nM; for inhibition at 0.03 µM: compound 0.03 μM; for inhibition at 0.1 µM: compound 0.1 μM; for inhibition at 0.3 µM: compound 0.3 μM; for inhibition at 1 µM: compound 1 μM
T1 construct: purchased R&D Systems
Protocol: Antiangiogenic properties were evaluated in vitro by measuring the inhibition of VEGF165 to NRP-1 binding. This test makes it possible to evaluate the % inhibition by the evaluated compound at a particular concentration.
The evaluation of the inhibitory effect of peptidomimetics were performed using an enzymatic method denoting the spectrophotometric displacement of the VEGF165 ligand from a bond with the specific receptor Neuropilin-1 by the evaluated compound. The studies were performed using polystyrene 96-well plates (Maxisorb, Nunc.).
To evaluate the biological inhibitory activity of selected molecules, the surfaces of flat bottom polystyrene wells of 96-wells plates (Maxisorb, Nunc,) was treated with 100 ul of 2 ug/ml anti-Fc IgG (Sigma-Aldrich, Saint Quentin Fallavier, France) in phosphate buffer saline (PBS, Sigma) overnight at 4° C. After washing and saturation of non-specific interactions with bovine serum albumin (BSA, Sigma), purified recombinant rat NRP1-Fc (20 ng/well, R&D Systems, Abingdon, UK) in 50 μl PBS-BSA 0.1%-tween-80 0.005% (PBT), […] VEGF165 (final concentration 1 nM, R&D Systems) diluted in PBT containing 2 μg/ml of heparin (Sigma) were successively added to a final volume of 150 μl. After an overnight incubation at 4° C., the wells were washed with PBT and treated with streptavidin-HRP polymer (Sigma) followed by washing and addition of ABTS substrate (Sigma). The DO measures were performed at 415 nm in reference to 470 nm after 15 minutes-2 h of reaction. […] In the control wells, the tested compound was absent but the respective concentration of DMSO was maintained. The heptapeptide A7R (ATWLPPR) was routinely used as a positive control for each plate.

T1 sequence (Q9QWJ9 with tags, fused parts or gaps limits assumed): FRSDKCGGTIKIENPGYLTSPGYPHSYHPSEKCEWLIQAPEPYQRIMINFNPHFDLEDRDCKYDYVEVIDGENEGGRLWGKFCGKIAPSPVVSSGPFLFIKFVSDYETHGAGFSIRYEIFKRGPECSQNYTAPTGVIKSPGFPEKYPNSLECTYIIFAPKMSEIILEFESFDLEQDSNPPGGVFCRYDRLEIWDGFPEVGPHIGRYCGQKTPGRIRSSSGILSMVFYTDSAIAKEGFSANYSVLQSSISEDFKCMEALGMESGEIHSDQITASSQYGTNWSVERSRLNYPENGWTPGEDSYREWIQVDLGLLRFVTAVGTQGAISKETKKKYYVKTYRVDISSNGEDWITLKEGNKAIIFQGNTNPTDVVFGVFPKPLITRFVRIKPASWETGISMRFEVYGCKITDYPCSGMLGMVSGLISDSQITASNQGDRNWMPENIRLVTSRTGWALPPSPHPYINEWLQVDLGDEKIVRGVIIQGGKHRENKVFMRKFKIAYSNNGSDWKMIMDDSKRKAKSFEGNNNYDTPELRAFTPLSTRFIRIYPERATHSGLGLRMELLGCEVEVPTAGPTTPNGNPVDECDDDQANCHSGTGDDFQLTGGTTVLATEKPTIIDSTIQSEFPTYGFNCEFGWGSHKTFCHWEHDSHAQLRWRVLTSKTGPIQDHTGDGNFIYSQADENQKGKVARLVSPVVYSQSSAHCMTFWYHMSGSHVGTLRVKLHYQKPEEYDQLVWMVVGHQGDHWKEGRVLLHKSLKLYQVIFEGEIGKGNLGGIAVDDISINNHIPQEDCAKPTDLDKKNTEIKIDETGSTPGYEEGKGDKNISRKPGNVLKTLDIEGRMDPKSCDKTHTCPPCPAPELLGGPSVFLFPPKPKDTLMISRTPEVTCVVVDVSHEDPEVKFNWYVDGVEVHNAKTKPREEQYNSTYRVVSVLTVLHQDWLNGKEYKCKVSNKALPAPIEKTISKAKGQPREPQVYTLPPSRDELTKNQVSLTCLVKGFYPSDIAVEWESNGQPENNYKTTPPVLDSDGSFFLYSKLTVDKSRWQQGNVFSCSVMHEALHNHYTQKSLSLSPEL

Molecule	half-life at 0.35 μmol/mL [1] [h]	main enzymatic cleavage / degradation products [1]	inhibition at 0.03 µM (NRP-1) [%]	inhibition at 0.1 µM (NRP-1) [%]	inhibition at 0.3 µM (NRP-1) [%]	inhibition at 1 µM (NRP-1) [%]	inhibition at 3 µM (NRP-1; compound 3 μM) [%]	inhibition at 10 µM (NRP-1; compound 10 μM) [%]	inhibition at 30 µM (NRP-1; compound 30 μM) [%]	% inhibition of VEGF165 to NRP-1 binding (NRP-1; compound 3 μM) [%]	% inhibition of VEGF165 to NRP-1 binding (NRP-1; compound 10 μM) [%]	% inhibition of VEGF165 to NRP-1 binding (NRP-1; compound 30 μM) [%]
N=C(N)NCCCC[C@H](N)C(=O)NCCCC[C@H](N)C(=O)N1CCCC1C(=O)N[C@@H](CCN)C(=O)N[C@@H](CCCNC(=N)N)C(=O)O (stereo partly drawn) [compound 2, Lys(hArg)-Pro-Dab-Arg] (H-K(hArg)[ξP][Dab]R-OH)	0.667	to Lys(hArg)-Pro and Dab-Arg	13.7	35.4	62.2	82.6	93.6	98.3	100	–	–	–
N=C(N)NCCCC[C@H](N)C(=O)NCCCC[C@H](N)C(=O)N[C@@H](CN)C(=O)N1CCC[C@H]1C(=O)N[C@@H](CCCNC(=N)N)C(=O)O [compound 3, Lys(hArg)-Dap-Pro-Arg] (H-K(hArg)[Dap]PR-OH)	~2.33	between the first and second residue	11.6	33	59.4	82	93.4	96.8	99.7	–	–	–
N=C(N)NCCCC[C@H](N)C(=O)NCCCC[C@H](N)C(=O)N[C@@H](CCN)C(=O)N1CCC[C@H]1C(=O)N[C@@H](CCCNC(=N)N)C(=O)O [compound 4, Lys(hArg)-Dab-Pro-Arg] (H-K(hArg)[Dab]PR-OH)	–	–	–	21.6	47.8	82.4	91.4	98.5	100	–	–	–
ATWLPPR [A7R, reference compound]	–	–	–	–	–	–	–	–	–	61.2	76.9	85.5
